From US20240360114A1 (SIRONAX LTD., priority 2021, published 2024)

Tested on: HT-1080 cells
Assay: HT-1080 cell viability assay (ferroptosis induced by RSL3, Cell Titer-Glo)
Assay type: cell-based
Details: ferroptosis inducer RSL3, 20 hours, ferroptosis inhibitory activity, Table 2
Procedure, shortened: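 Cells seeded overnight, then co-treated with RSL3 and compound (3-fold, 10-point dilution, top 1.1 μM) for 20 hours. Viability by CellTiter-Glo luminescence, normalized to untreated controls; EC50 from sigmoidal non-linear regression.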

Compound | EC50 (Homo sapiens, HT-1080, 20 h) [nM] | EC50 [nM]
Cc1cc(N2CCCCC2)ccc1NC1C[C@H]2CC(N)C[C@H]2C1 (stereo partly drawn) [Compound 392, (3aR,6aS)-N2-(2-methyl-4-(piperidin-1-yl)phenyl) octahydropentalene-2,5-diamine] | 0.1 to 100 | 
CC(C)C1CCN(c2cnc(NC3CCC(N)CC3)cn2)CC1 (centres unmarked) [Compound 399, N1-(5-(4-isopropylpiperidin-1-yl)pyrazin-2-yl)cyclohexane-1,4-diamine] | 0.1 to 100 | 
NC1CCCCC1Nc1ccc(N2CCC(C(F)(F)F)CC2)cc1 (centres unmarked) [Compound 402, N1-(4-(4-(trifluoromethyl)piperidin-1-yl)phenyl)cyclohexane-1,2-diamine] | 0.1 to 100 | 
CC(C)C1CCN(c2ncc(NC3CC4(CC(NC(=O)C(N)=O)C4)C3)cn2)CC1 (centres unmarked) [Compound 403, N1-(6-((2-(4-isopropylpiperidin-1-yl)pyrimidin-5-yl)amino)spiro[3.3]heptan-2-yl)oxalamide] | 0.1 to 100 | 
CC(C)C1CCN(c2ncc(NC3CCC(C(N)=O)CC3)cn2)CC1 (centres unmarked) [Compound 404, 4-((2-(4-isopropylpiperidin-1-yl)pyrimidin-5-yl)amino)cyclohexane-1-carboxamide] | 0.1 to 100 | 
Cc1cc(N2CC(C)OC(C)C2)ccc1NCC1CCC(N)CC1 (centres unmarked) [Compound 407, N-(((1r,4r)-4-aminocyclohexyl)methyl)-4-(2,6-dimethylmorpholino)-2-methylaniline] |  | 0.1 to 100
CC1(C)CCN(c2ncc(NC3C4CC5CC3CC(C(N)=O)(C5)C4)cn2)CC1 (centres unmarked) [Compound 410, 4-((2-(4,4-dimethylpiperidin-1-yl)pyrimidin-5-yl)amino)adamantane-1-carboxamide] | 0.1 to 100 | 
CC(C)C1CCN(c2ncc(NC3CC4(CC(NCCF)C4)C3)cn2)CC1 (centres unmarked) [Compound 412, N2-(2-fluoroethyl)-N6-(2-(4-isopropylpiperidin-1-yl)pyrimidin-5-yl)spiro[3.3]heptane-2,6-diamine] | 0.1 to 100 | 
CC(C)C1CCN(c2ncc(NC3CC4(CC(NCC(F)F)C4)C3)cn2)CC1 (centres unmarked) [Compound 413, N2-(2,2-difluoroethyl)-N6-(2-(4-isopropylpiperidin-1-yl)pyrimidin-5-yl)spiro[3.3]heptane-2,6-diamine] | 0.1 to 100 | 
CC(C)C1CCN(c2ncc(NC3CC4(CC(NCC(F)(F)F)C4)C3)cn2)CC1 (centres unmarked) [Compound 414, N2-(2-(4-isopropylpiperidin-1-yl)pyrimidin-5-yl)-N6-(2,2,2-trifluoroethyl)spiro[3.3]heptane-2,6-diamine] | 0.1 to 100 | 
NC1CCC(Nc2ccc(N3CCC(C(F)(F)F)CC3)c(OCCO)c2)CC1 (centres unmarked) [Compound 416, (5-((4-aminocyclohexyl)amino)-2-(4-(trifluoromethyl)piperidin-1-yl)phenoxy) ethan-1-ol] | 0.1 to 100 | 
CN[C@H]1CC[C@H](CNc2ccc(N3CC(C)OC(C)C3)cc2)CC1 (some centres unmarked) [Compound 420, 4-(2,6-dimethylmorpholino)-N-(((1r,4r)-4-(methylamino)cyclohexyl)methyl)aniline] | 0.1 to 100 | 
CC1CN(c2ccc(NC3C4CC5CC3CC(N)(C5)C4)cc2)CC(C)O1 (centres unmarked) [Compound 421A, N^4-(4-(2,6-dimethylmorpholino)phenyl)adamantane-1,4-diamine] | 0.1 to 100 | 
CC1CC(C)CN(c2ncc(NC3CC4(CC(NC(=O)C(N)=O)C4)C3)cn2)C1 (centres unmarked) [Compound 425, N1-(6-((2-(3,5-dimethylpiperidin-1-yl)pyrimidin-5-yl)amino)spiro[3.3]heptan-2-yl)oxalamide] | 0.1 to 100 | 
NNC(=O)C1CC2(CC(Nc3cnc(N4CCC(C(F)(F)F)CC4)nc3)C2)C1 (centres unmarked) [Compound 427, 6-((2-(4-(trifluoromethyl)piperidin-1-yl)pyrimidin-5-yl)amino)spiro[3.3]heptane-2-carbohydrazide] | 0.1 to 100 | 
O=C(NO)C1CC2(CC(Nc3cnc(N4CCC(C(F)(F)F)CC4)nc3)C2)C1 (centres unmarked) [Compound 428, N-hydroxy-6-((2-(4-(trifluoromethyl)piperidin-1-yl)pyrimidin-5-yl)amino)spiro[3.3]heptane-2-carboxamide] | 0.1 to 100 | 
CC(C)C1CCN(c2ncc(NCC[C@H]3CC[C@H](NC(N)=O)CC3)cn2)CC1 [Compound 429, 1-((1r,4r)-4-(2-((2-(4-isopropylpiperidin-1-yl)pyrimidin-5-yl)amino)ethyl)cyclohexyl)urea] | 0.1 to 100 | 
Cc1cc(N2CC(C)OC(C)C2)c(F)cc1NC[C@H]1CC[C@H](N)CC1 (some centres unmarked) [Compound 432, N-(((1r,4r)-4-aminocyclohexyl)methyl)-4-(2,6-dimethylmorpholino)-5-fluoro-2-methylaniline] | 0.1 to 100 | 

The remaining lines, values ahead:

EC50 (Homo sapiens, HT-1080, 20 h) [nM] | EC50 [nM] | Compound
0.1 to 100 |  | Cc1cc(N(C)C)ccc1NC[C@H]1CC[C@H](N)CC1 [Compound 393, N^1-(((1r,4r)-4-aminocyclohexyl)methyl)-N4,N4,2-trimethylbenzene-1,4-diamine]
0.1 to 100 |  | N[C@H]1CC[C@H](CCNc2ccc(N3CCC(C(F)(F)F)CC3)cc2F)CC1 [Compound 394, N-(2-((1r, 4r)-4-aminocyclohexyl)ethyl)-2-fluoro-4-(4-(trifluoromethyl)piperidin-1-yl)aniline]
0.1 to 100 |  | N[C@H]1CC[C@H](CNc2ccc(N3CCC(C(F)(F)F)CC3)nc2F)CC1 [Compound 395, N-(((1r, 4r)-4-aminocyclohexyl)methyl)-2-fluoro-6-(4-(trifluoromethyl)piperidin-1-yl)pyridin-3-amine]
0.1 to 100 |  | CC1CCN(c2ncc(NC[C@H]3CC[C@H](N)CC3)cc2C(F)(F)F)CC1 [Compound 396, N-(((1r,4r)-4-aminocyclohexyl)methyl)-6-(4-methylpiperidin-1-yl)-5-(trifluoromethyl)pyridin-3-amine]
0.1 to 100 |  | NC1CC2(C1)CC(Nc1ccc(N3CCC(C(F)(F)F)CC3)nc1)C2 (centres unmarked) [Compound 397, N2-(6-(4-(trifluoromethyl)piperidin-1-yl)pyridin-3-yl)spiro[3.3]heptane-2,6-diamine]
0.1 to 100 |  | N[C@H]1CC[C@H](CNc2ccc(N3CCC(C(F)(F)F)CC3)nc2)CC1 [Compound 398, N-(((1r,4r)-4-aminocyclohexyl)methyl)-6-(4-(trifluoromethyl)piperidin-1-yl)pyridin-3-amine]
1000 to 10000 |  | CC(C)C1CCN(c2cnc(NC3CCC(N)CC3)nc2)CC1 (centres unmarked) [Compound 400, N1-(5-(4-isopropylpiperidin-1-yl)pyrimidin-2-yl)cyclohexane-1,4-diamine]
0.1 to 100 |  | CC(C)C1CCN(c2ncc(NC3C[C@H]4CC(NO)C[C@H]4C3)cn2)CC1 (stereo partly drawn) [Compound 401, N-((3aR, 6aS)-5-(hydroxyamino)octahydropentalen-2-yl)-2-(4-isopropylpiperidin-1-yl) pyrimidin-5-amine]
0.1 to 100 |  | CC1CCN(c2ncc(NC3C4CC5CC3CC(C(N)=O)(C5)C4)cn2)CC1 (centres unmarked) [Compound 405, 4-((2-(4-methylpiperidin-1-yl)pyrimidin-5-yl)amino)adamantane-1-carboxamide]
0.1 to 100 |  | CC(C)C1CCN(c2ccc(NC3CCC(N)CC3)nc2)CC1 (centres unmarked) [Compound 406, N1-(5-(4-isopropylpiperidin-1-yl)pyridin-2-yl)cyclohexane-1,4-diamine]
0.1 to 100 |  | CC(C)C1CCN(c2ncc(NC3C4CC5CC3CC(NC(N)=O)(C5)C4)cn2)CC1 (centres unmarked) [Compound 408, 1-(4-((2-(4-isopropylpiperidin-1-yl)pyrimidin-5-yl)amino)adamantan-1-yl)urea]
0.1 to 100 |  | CC(C)C1CCN(c2ncc(NC[C@H]3CC[C@H](NC(N)=O)CC3)cn2)CC1 [Compound 409, 1-((1r,4r)-4-(((2-(4-isopropylpiperidin-1-yl)pyrimidin-5-yl)amino)methyl)cyclohexyl)urea]
0.1 to 100 |  | CC(C)C1CCN(c2ccc(NC3CCC(N)CC3)nn2)CC1 (centres unmarked) [Compound 411, N1-(6-(4-isopropylpiperidin-1-yl)pyridazin-3-yl)cyclohexane-1,4-diamine]
0.1 to 100 |  | OC1CCCCC1Nc1ccc(N2CCC(C(F)(F)F)CC2)cc1 (centres unmarked) [Compound 415, 2-((4-(4-(trifluoromethyl)piperidin-1-yl)phenyl)amino)cyclohexan-1-ol]
0.1 to 100 |  | Cc1cc(N2CC(C)CC(C)C2)ccc1NC[C@H]1CC[C@H](N)CC1 (some centres unmarked) [Compound 418]
0.1 to 100 |  | Cc1cc(N2CCC(C(F)(F)F)C2)ccc1NC[C@H]1CC[C@H](N)CC1 (some centres unmarked) [Compound 419, N-(((1r,4r)-4-aminocyclohexyl)methyl)-2-methyl-4-(3-(trifluoromethyl)pyrrolidin-1-yl)aniline]
0.1 to 100 |  | CC(C)C1CCN(c2ncc(NC3CC4(CC(O)C4)C3)cn2)CC1 (centres unmarked) [Compound 422, 6-((2-(4-isopropylpiperidin-1-yl)pyrimidin-5-yl)amino)spiro[3.3]heptan-2-ol]
0.1 to 100 |  | CC(C)C1CCN(c2ncc(NC[C@H]3CC[C@H](C(N)=O)CC3)cn2)CC1 [Compound 423, (1r,4r)-4-(((2-(4-isopropylpiperidin-1-yl)pyrimidin-5-yl)amino)methyl)cyclohexane-1-carboxamide]
0.1 to 100 |  | CC(C)C1CCN(c2ncc(NC3C4CC5CC3CC(O)(C5)C4)cn2)CC1 (centres unmarked) [Compound 424, 4-((2-(4-isopropylpiperidin-1-yl)pyrimidin-5-yl)amino) adamantan-1-ol]
0.1 to 100 |  | CC1CN(c2ccc(NC3C4CC5CC3CC(CN)(C5)C4)cc2)CC(C)O1 (centres unmarked) [Compound 426, 5-(aminomethyl)-N-(4-(2,6-dimethylmorpholino)phenyl)adamantan-2-amine]
0.1 to 100 |  | CC1CN(c2ccc(NC[C@H]3CC[C@H](N)CC3)cc2F)CC(C)O1 (some centres unmarked) [Compound 430, N-(((1r,4r)-4-aminocyclohexyl)methyl)-4-(2,6-dimethylmorpholino)-3-fluoroaniline]
0.1 to 100 |  | CC1CN(c2ccc(NC[C@H]3CC[C@H](N)CC3)c(F)c2)CC(C)O1 (some centres unmarked) [Compound 431, N-(((1r,4r)-4-aminocyclohexyl)methyl)-4-(2,6-dimethylmorpholino)-2-fluoroaniline]
0.1 to 100 |  | Cc1c(NC[C@H]2CC[C@H](N)CC2)ccc(N2CC(C)OC(C)C2)c1F (some centres unmarked) [Compound 433, N-(((1r,4r)-4-aminocyclohexyl)methyl)-4-(2,6-dimethylmorpholino)-3-fluoro-2-methylaniline]
